Assay results: patent US20230172973A1, “METHODS AND COMPOSITIONS FOR TREATING AND COMBATTING TUBERCULOSIS” (THIRTY RESPIRATORY LIMITED, priority 2020, published 2023)

Columns and labels:
[1] = tested on: SARS-CoV-2 clinical isolate; test: SARS-CoV-2 inhibition (virus yield reduction, TCID50 titration); format: cell-based
Experimental: At time 0 hr, Vero E6 cells were infected with virus in presence of the formulation or controls and incubated for 1 hour. After this incubation period the inoculum was removed and the cells were washed. Fresh formulation or controls were then added to the washed cells. At 24 hours post infection, Vero E6 cell supernatants were harvested and titrated, and the virus titration was incubated for 6 days prior to readout to determine any virus yield reduction. Separate tests were performed at four MOIs including 3.0 and 0.3, although only those two MOIs were titrated. The readout was by crystal violet (cell monolayer) staining, followed by CPE scoring.

[2] = tested on: Vero E6 cells; details: 2 hr and 24 hr

SMILES	SARS-CoV-2 titre (FIG. 33, Run 1) ([1]; MOI 3.0, 24 hours incubation)	SARS-CoV-2 titre (FIG. 34, Run 2) ([1]; MOI 3.0 and MOI 0.3, 48 hours incubation)	In vitro antiviral action against SARS-CoV-2 (FIGS. 33 and 34) ([1]; Vero E6 cells, MOI 3.0 and 0.3)	Cytotoxicity on the LDH assay (FIG. 32) [2]
CCN(CC)CCCC(C)Nc1ccnc2cc(Cl)ccc12 (stereo not shown) [chloroquine, Chloroquine phosphate]	limit of detection	limit of detection		
O=C(O)CC(O)(CC(=O)O)C(=O)O [citric acid pH 5.8, citric acid]			high in vitro antiviral action	low cytotoxicity
